Data set [1] concerns vCor.4U cardiomyocytes. In words: Human cardiac troponin I release (AlphaLISA) after oxidative stress. The class given is cell-based. As to conditions: 10 μM compound, up to 200 μM H2O2 or 45 μM menadione. Here is the method: For cell-based dose-response experiments, MAP4K4 inhibitors were prepared in 96-well polypropylene plates as serial dilutions in DMSO of 10 mM stock solutions. To a sterile 96-well intermediate plate, 1 μl of each well was added to 99 μl of medium, the samples were mixed, and 5 μl well^-1 from the intermediate plate were transferred to the cultured cells (final concentration, 0.1% DMSO; final top concentration of inhibitor, 10 μM). Assay plates were gently centrifuged then incubated for 1 hr at 37°C. The death triggers menadione, H2O2 and doxorubicin were prepared fresh on the day of treatment at 10x the final concentrations and 5 μl well^-1 were added as appropriate. Assay plates were gently centrifuged and then incubated at 37°C for the duration of treatment.
Aliquots of medium collected after cells’ treatment with death signals and MAP4K4 inhibitors were incubated at room temperature with AlphaLISA human cardiac troponin I detection reagents (PerkinElmer): sequentially, anti-Troponin I acceptor beads for 1 hr, biotinylated antibody to troponin I for 1hr, and streptavidin (SA)-coated donor beads for 30 min. The AlphaLISA signal was acquired using the Pherastar Plus plate reader. All detection reagents were diluted in 1X AlphaLISA Immunoassay Buffer and a serially diluted analyte standard was used to quantitate the concentration of human cardiac troponin I (pg ml^-1).
For orientation: In Alpha technology, singlet oxygen from a donor bead excites a nearby acceptor bead.

A short description of data set [2]: IV PK (plasma concentrations after intravenous administration). Type of data set: in vivo, mice. As to conditions: IV PK (1 mg kg^−1); for Cmax / Vd / clearance / half-life: mouse, mice, plasma.
The target of data set [3] is T1, DYRK1A (Homo sapiens, UniProt Q13627).
T1 construct: lines 1-140) and Reaction Biology
Nature of the data set: Dundee kinase panel. Type of data set: biochemical. As to conditions: for remaining activity at 1 µM: read-out: residual activity. Here is the method:
(§1) Kinase selectivity profiling was performed by the International Centre for Kinase Profiling, MRC Protein Phosphorylation and Ubiquitylation Unit (141 kinases; Premier Screen, http://www.kinase-screen.mrc.ac.uk), using a [γ-^33P]ATP filter binding assay ([Bain et al., 2007]). Compounds were screened at 1 μM. For key hits, pIC50 values were then determined by HTRF as above. More complete kinome profiling was performed by Reaction Biology (376 kinases). Stability in mouse and human liver microsomes was determined by Cyprotex.

In data set [4] the target is T2, ERK5 (Homo sapiens, UniProt Q13164).
T2 construct: lines 1-140) and Reaction Biology
Nature of the data set: Dundee kinase panel. Type of data set: biochemical. As to conditions: for remaining activity at 1 µM: read-out: residual activity. Here is the method: as §1

The target in data set [5] is T3, MAP4K5 (Homo sapiens, UniProt Q9Y4K4).
T3 construct: lines 1-140) and Reaction Biology
In words: Dundee kinase panel. Type of data set: biochemical. As to conditions: for remaining activity at 1 µM: read-out: residual activity. Here is the method: as §1

Data set [6] has as its target T4, MARK1 (Homo sapiens, UniProt Q9P0L2).
T4 construct: lines 1-140) and Reaction Biology
Nature of the data set: Dundee kinase panel. Type of data set: biochemical. As to conditions: for remaining activity at 1 µM: read-out: residual activity. The protocol: as §1

Data set [7] deals with T5, MINK1 (Homo sapiens, UniProt Q8N4C8).
T5 construct: lines 1-140) and Reaction Biology
Nature of the data set: Dundee kinase panel. Type of data set: biochemical. Conditions: for remaining activity at 1 µM: read-out: residual activity. Here is the method: as §1

The target of data set [8] is T6, Src (Homo sapiens, UniProt P12931).
T6 construct: lines 1-140) and Reaction Biology
Nature of the data set: Dundee kinase panel. The class given is biochemical. As to conditions: for remaining activity at 1 µM: read-out: residual activity. The protocol:
as §1

For data set [9], the target named is T7, TGFBR1 (Homo sapiens, UniProt P36897).
T7 construct: lines 1-140) and Reaction Biology
T7 sequence (P36897 34-503): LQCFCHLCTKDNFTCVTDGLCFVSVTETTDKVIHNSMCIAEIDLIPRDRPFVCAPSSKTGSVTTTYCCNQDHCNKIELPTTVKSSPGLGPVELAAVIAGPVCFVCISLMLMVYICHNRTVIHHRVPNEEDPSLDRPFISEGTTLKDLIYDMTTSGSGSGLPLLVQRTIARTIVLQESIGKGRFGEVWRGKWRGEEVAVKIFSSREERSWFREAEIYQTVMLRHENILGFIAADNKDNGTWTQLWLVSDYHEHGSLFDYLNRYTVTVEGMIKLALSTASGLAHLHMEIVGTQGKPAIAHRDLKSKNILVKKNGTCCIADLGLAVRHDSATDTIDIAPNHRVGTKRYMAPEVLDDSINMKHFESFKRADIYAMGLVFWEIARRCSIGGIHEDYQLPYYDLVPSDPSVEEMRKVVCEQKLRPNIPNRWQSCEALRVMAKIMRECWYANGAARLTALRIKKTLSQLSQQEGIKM
Nature of the data set: Dundee kinase panel. Conditions: for remaining activity at 1 µM: read-out: residual activity. Type of data set: biochemical. The protocol:
as §1

Data set [10] addresses T8, ULK2 (Homo sapiens, UniProt Q8IYT8).
T8 construct: lines 1-140) and Reaction Biology
T8 sequence (Q8IYT8 1-1036): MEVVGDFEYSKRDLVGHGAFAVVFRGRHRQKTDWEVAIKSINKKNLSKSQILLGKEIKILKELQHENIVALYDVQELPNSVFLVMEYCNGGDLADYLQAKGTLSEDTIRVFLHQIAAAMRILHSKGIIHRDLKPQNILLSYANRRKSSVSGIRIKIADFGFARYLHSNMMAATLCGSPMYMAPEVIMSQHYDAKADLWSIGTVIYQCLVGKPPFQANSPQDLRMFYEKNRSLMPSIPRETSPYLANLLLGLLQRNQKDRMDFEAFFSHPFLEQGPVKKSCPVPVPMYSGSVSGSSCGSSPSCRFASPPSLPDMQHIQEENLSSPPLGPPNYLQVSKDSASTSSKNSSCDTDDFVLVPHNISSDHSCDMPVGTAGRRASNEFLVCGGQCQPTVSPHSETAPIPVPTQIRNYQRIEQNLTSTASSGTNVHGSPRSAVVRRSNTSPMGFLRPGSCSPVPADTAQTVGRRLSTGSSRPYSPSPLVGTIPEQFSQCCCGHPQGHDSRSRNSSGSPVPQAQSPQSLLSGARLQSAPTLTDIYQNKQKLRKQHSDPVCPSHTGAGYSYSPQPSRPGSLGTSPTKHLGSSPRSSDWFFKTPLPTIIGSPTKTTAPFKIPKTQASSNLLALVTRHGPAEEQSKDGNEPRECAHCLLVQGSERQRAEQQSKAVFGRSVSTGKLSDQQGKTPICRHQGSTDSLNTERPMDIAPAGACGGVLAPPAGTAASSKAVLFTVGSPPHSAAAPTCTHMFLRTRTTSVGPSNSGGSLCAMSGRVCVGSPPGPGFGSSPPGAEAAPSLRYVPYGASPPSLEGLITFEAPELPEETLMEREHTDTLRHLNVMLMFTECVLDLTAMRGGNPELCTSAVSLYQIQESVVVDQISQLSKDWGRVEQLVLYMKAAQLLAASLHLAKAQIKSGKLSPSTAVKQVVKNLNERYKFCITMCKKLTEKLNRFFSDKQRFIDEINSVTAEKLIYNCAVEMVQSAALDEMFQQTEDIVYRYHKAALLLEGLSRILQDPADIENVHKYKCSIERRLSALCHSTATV
In words: Dundee kinase panel. Type of data set: biochemical. As to conditions: for remaining activity at 1 µM: read-out: residual activity. Here is the method: as §1

For orientation: Cmax means the peak of the concentration-time curve. The term Vd denotes a proportionality between amount in the body and measured concentration, not a real space. Higher therefore signals wide distribution into tissue. The term clearance denotes the volume of plasma or blood freed of the substance per unit of time. What is called half-life is the time in which the quantity being followed falls by half. Lower therefore signals rapid decline. By residual activity is commonly meant the signal under treatment as a percentage of the control signal.

The structures appear in SMILES notation.

T4 sequence (Q9P0L2 whole entry): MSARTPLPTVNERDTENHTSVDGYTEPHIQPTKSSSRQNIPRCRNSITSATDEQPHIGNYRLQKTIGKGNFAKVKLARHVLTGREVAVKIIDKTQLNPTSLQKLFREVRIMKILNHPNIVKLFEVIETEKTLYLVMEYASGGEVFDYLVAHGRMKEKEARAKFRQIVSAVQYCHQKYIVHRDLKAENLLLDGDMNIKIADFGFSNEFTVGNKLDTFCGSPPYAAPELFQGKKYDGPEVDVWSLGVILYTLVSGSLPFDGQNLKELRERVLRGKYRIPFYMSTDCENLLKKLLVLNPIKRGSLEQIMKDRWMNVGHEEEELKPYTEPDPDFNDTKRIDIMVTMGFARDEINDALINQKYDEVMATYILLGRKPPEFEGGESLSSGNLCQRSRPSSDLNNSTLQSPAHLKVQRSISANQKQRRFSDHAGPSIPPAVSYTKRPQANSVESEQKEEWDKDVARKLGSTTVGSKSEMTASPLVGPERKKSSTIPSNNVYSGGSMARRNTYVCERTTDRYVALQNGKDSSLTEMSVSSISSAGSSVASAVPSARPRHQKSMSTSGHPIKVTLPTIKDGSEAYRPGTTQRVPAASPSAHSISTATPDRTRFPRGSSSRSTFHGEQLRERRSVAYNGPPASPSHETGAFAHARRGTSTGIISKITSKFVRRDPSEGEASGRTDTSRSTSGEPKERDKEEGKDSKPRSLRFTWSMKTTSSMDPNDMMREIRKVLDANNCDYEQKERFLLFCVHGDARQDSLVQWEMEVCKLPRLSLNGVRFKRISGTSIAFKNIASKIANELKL
T2 sequence (Q13164 whole entry): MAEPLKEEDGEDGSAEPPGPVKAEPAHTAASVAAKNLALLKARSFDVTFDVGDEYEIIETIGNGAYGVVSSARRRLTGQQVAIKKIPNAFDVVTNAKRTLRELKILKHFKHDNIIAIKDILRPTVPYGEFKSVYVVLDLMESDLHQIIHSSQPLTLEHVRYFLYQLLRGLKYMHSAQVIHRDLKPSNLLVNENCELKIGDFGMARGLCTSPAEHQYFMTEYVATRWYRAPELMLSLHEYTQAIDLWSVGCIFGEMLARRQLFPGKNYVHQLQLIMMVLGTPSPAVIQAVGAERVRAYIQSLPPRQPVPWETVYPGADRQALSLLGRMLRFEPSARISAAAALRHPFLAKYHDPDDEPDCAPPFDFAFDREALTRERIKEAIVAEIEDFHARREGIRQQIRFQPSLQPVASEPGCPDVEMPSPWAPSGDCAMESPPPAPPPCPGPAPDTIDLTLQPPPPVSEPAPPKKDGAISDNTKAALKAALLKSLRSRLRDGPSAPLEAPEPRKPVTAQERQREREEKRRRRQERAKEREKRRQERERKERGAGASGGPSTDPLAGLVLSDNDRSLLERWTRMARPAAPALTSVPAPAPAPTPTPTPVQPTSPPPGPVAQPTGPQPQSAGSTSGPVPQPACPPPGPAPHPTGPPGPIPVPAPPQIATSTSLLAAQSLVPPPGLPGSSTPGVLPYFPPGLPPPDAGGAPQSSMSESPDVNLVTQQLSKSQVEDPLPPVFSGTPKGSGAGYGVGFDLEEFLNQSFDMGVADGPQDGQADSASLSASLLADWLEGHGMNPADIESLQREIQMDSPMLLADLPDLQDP
T6 sequence (P12931 whole entry): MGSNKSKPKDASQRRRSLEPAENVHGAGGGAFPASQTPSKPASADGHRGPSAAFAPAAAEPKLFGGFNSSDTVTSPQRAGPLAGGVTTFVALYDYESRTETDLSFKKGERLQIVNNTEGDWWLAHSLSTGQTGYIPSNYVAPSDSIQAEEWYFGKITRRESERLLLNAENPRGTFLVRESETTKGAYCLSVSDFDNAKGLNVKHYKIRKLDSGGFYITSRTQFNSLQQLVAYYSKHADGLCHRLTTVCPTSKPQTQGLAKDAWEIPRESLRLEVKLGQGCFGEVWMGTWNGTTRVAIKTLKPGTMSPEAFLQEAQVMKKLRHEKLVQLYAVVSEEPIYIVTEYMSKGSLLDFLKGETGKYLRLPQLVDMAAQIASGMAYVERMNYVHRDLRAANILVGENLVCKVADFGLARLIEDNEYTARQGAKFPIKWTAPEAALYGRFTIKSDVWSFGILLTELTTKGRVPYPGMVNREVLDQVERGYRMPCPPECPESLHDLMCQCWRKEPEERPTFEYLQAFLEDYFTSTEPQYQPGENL
T5 sequence (Q8N4C8 whole entry): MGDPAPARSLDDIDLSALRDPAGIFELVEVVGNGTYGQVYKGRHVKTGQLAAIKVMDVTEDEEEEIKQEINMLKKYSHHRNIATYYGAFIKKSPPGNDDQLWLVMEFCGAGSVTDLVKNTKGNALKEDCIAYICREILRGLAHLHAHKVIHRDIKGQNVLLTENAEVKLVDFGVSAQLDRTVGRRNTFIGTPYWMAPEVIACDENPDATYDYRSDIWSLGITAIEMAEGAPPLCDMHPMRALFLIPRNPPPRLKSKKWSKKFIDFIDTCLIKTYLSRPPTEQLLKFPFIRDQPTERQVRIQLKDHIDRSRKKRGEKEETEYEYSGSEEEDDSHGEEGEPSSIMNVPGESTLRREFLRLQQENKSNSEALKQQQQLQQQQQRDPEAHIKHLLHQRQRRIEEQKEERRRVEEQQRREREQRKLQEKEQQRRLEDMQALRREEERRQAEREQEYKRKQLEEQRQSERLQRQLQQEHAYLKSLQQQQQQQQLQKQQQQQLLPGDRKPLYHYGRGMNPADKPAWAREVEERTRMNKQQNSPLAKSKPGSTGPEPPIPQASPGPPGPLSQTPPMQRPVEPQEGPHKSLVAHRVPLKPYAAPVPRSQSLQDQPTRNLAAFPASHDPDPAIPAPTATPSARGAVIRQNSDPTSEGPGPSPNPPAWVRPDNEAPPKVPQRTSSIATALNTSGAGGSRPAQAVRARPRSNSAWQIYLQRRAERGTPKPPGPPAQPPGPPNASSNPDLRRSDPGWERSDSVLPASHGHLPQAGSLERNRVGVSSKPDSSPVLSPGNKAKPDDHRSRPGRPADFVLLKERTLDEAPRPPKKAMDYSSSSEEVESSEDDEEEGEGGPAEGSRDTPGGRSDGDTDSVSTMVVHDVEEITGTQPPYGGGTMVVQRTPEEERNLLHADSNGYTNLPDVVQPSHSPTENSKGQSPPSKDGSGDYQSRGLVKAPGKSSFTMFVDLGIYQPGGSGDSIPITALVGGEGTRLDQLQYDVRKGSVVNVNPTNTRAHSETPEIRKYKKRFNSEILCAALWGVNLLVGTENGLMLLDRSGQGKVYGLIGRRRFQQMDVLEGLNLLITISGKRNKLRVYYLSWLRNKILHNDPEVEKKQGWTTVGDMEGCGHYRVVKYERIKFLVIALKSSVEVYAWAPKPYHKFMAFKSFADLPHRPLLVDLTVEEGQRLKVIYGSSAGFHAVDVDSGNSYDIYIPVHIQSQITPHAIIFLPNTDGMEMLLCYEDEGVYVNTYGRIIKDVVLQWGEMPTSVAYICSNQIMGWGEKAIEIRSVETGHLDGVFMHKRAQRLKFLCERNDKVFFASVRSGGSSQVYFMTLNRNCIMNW
T3 sequence (Q9Y4K4 whole entry): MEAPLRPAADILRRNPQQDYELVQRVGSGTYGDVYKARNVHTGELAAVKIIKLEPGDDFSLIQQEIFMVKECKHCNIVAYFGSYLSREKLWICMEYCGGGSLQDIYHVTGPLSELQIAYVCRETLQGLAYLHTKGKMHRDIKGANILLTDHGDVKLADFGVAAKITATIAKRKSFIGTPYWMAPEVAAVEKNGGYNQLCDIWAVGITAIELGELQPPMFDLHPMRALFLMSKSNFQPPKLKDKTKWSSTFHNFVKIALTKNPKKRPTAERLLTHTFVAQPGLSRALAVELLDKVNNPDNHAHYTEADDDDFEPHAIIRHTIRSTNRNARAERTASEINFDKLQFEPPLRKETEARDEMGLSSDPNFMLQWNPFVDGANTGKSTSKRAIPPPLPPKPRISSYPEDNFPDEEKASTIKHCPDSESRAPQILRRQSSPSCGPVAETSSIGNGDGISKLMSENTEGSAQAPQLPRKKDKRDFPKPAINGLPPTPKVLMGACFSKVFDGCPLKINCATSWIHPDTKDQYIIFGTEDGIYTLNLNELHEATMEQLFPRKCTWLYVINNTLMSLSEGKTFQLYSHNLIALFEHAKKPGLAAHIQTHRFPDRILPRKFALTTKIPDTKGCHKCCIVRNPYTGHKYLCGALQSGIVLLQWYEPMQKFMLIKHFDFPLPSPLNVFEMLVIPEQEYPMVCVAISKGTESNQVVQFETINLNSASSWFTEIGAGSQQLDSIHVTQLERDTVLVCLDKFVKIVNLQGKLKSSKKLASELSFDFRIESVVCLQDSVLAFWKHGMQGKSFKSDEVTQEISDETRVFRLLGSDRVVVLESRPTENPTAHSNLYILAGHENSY

For the compound `Oc1ncnc2c1c(-c1ccccc1)cn2-c1ccccc1` [F1386-0303, 5,7-diphenyl-7H-pyrrolo[2,3-d]pyrimidin-4-ol], the “protection from death signal (human cardiac troponin release)” value in data set [1] is recorded as “virtually complete”. Also, the Cmax in data set [2] came to 3260 nM. For the same compound, the Vd in data set [2] is 1.05 L/kg. The compound also had a clearance in data set [2] of 88.8 mL/min/kg. This compound had a half-life in [2] of 6 min. Further, the remaining activity at 1 µM was 108% in data set [3]; 93% in data set [4]; 82% in data set [5]; 87% in data set [6]; 11% in data set [7]; 118% in data set [8]. The remaining activity at 1 µM is 141% in data set [9] and 86% in data set [10].
For `COCCOc1ccc(-c2cn(-c3ccccc3)c3nc[nH]c(=O)c23)cc1` [DMX-5804, 5-[4-(2-methoxy-ethoxy)-phenyl]-7-phenyl-3,7-dihydro-pyrrolo[2,3-d]pyrimidin-4-one], the “protection from death signal (human cardiac troponin release)” value in data set [1] is on record as “substantiated”. The compound also returned a Cmax in data set [2] of 1590 nM. Further, in [2], the Vd was found to be 1.22 L/kg. Further, the clearance in [2] is 41.7 mL/min/kg. In data set [2], this compound gave a half-life of 36 min. Besides, the “Cl, DMX-5804 versus F1386-0303” value in [2] (ratio) stood at 0.47. The “Cmax, DMX-5804 versus F1386-0303” value in data set [2] (ratio) is recorded as 0.49. In data set [2] (ratio), the “Vd, DMX-5804 versus F1386-0303” value amounted to 1.16. In addition, the “t1/2, DMX-5804 versus F1386-0303” value in data set [2] (ratio) turned out to be 6.00. Moreover, the remaining activity at 1 µM in data set [3] is 110%; in [4], 115%; in data set [5], 44%; in data set [6], 81%; in data set [7], 2%; in data set [8], 92%. Moreover, the remaining activity at 1 µM is 95% in data set [9] and 89% in [10].
As for `Nc1ncc(C(=O)NC2CN(C(=O)C3CC3)C2)c2ccc(-c3cccc(F)c3)nc12` [GNE-495], the residual activity was determined as 55% in [3] (1 μM); 96% in data set [4] (1 μM); 45% in [5] (1 μM); 57% in data set [6] (1 μM); 2% in data set [7] (1 μM); 122% in data set [8] (1 μM). Further, the residual activity is 94% in data set [9] (1 μM) and 100% in data set [10] (1 μM).

These data come from paper PMC6458995, “MAP4K4 Inhibition Promotes Survival of Human Stem Cell-Derived Cardiomyocytes and Reduces Infarct Size In Vivo” (Cell Stem Cell, 2019).
